Reference: patent US10752581B2, “4-((2-hydroxy-3-methoxybenzyl)amino)benzenesulfonamide derivatives as potent and selective inhibitors of 12-lipoxygenase” (Eastern Virginia Medical School, priority 2013, dated 2020)
Entries after “also recorded” stand apart in the source; their conditions may differ.

Columns and labels:
[1] = target: human epithelial 15-lipoxygenase-2 (15-LOX-2) (Homo sapiens (Human), UniProt O15296); assay: biochemical
washed human platelets [2] = assay: PAR4-AP-induced platelet aggregation; format: cell-based
Protocol: (§1) Blood was centrifuged at 200 g for 13 min at room temperature.

[3] = PBS buffer (pH 7.4) solubility; format: physicochemical
[4] = Parallel Artificial Membrane Permeability Assay (PAMPA); details: PAMPA at pH 7.4
[5] = Microsomal stability (rat); format: in vitro ADME
Mouse beta cells (BTC3) = assay: Mouse Beta cells (12-HETE Inhibition) Assay; details: AA/IONO
Protocol: After four hours, the media was removed and spun at 1000 RPM for 5 minutes. The cleared supernatant was stored at −80° C. prior to analysis.

12-LOX = 12-LOX (Homo sapiens (Human), UniProt P18054)
12-LOX, sequence (P18054 whole entry): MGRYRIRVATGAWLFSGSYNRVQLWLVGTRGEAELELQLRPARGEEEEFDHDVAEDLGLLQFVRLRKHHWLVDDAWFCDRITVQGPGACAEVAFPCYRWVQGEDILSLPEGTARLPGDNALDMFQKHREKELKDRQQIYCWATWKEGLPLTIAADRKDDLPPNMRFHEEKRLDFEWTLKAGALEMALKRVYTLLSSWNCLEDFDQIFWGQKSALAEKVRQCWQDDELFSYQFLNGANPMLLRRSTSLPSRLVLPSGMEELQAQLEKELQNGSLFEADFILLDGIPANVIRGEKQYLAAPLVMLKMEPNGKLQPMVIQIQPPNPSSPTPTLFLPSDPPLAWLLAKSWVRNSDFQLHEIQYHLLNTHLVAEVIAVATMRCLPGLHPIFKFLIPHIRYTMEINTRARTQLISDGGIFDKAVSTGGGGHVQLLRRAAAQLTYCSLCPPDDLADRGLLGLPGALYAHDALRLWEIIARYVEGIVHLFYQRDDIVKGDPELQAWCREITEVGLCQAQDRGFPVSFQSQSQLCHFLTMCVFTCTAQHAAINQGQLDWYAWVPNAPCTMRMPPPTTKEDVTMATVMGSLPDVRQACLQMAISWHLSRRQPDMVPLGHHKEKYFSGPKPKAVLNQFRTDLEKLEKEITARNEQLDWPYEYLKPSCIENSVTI
Protocol: Reactions were initiated by adding substrate (range 1-5 μM AA) to approximately 30 nM 12-LOX in a constantly stirring 2 mL cuvette containing 25 mM HEPES buffer (pH 7.5), in the presence of 0.01% Triton X-100. […] Kinetic data were obtained by recording initial enzymatic rates, at varied substrate and inhibitor concentrations, and subsequently fitted to the Henri-Michaelis-Menten equation, using KaleidaGraph (Synergy) to determine the microscopic rate constants, Vmax (μmol/min/mg) and Vmax/KM (μmol/min/mg/μM).

[6] = tested on: human donor islet preparations; assay: Glucose-stimulated insulin secretion in human islets; format: cell-based; details: cytokines (TNFα, IL-1β, IFNγ); 3 mM or 18 mM glucose
Protocol: FIGS. 3D and 3E show results from glucose-stimulated insulin secretion in human donor islet preparations in response to 3 mM glucose (Low) or 18 mM glucose (High) for control (untreated) islets. […] FIGS. 3D and 3E represent results obtained in different human donor islet preparations.

washed human platelets [7] = assay: PAR4-AP-induced calcium mobilization; format: cell-based; details: 200 μM PAR4-AP; increasing concentrations
Protocol: as §1

mouse plasma stability = format: in vitro ADME
[8] = Stability in aqueous buffers and glutathione; format: physicochemical
[9] = target: human platelet 12-lipoxygenase (12-LOX) (Homo sapiens (Human), UniProt P18054); details: for IC50: read-out: IC50 [+SD], Table 1, UV-vis cuvette-based assay in triplicate
human platelet 12-lipoxygenase (12-LOX), sequence (P18054 whole entry): as above

human epithelial 15-lipoxygenase-2 (15-LOX-2), sequence (O15296 whole entry): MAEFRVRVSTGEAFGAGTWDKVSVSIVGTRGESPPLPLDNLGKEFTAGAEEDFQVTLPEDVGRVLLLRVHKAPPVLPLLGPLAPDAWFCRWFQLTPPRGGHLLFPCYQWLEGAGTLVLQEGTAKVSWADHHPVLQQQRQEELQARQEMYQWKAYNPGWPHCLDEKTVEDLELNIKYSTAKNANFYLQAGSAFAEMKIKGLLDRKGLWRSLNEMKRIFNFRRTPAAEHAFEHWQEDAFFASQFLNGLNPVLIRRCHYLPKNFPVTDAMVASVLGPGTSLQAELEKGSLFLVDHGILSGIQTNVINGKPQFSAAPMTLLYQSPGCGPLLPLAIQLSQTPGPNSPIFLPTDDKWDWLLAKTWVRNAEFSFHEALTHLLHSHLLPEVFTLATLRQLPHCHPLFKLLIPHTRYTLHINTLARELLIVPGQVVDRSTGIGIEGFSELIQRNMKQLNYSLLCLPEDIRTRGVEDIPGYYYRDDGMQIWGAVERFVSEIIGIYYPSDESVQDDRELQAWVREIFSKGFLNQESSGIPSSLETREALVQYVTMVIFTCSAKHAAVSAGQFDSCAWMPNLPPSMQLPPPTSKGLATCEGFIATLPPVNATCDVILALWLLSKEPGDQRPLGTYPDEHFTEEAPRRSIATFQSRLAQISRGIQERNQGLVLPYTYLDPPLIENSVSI

`COc1cccc(CNc2ccc(S(=O)(=O)Nc3nccs3)cc2)c1O` [Compound 1, 4-(2-hydroxy-3-methoxybenzylamino)-N-(thiazol-2-yl)benzenesulfonamide] gave an IC50 [1] of over 40 µM.
With `COc1cccc(CNc2ccc(S(=O)(=O)Nc3nc4ccccc4o3)cc2)c1O` [Compound 36, N-(benzo[d]oxazol-2-yl)-4-((2-hydroxy-3-methoxybenzyl)amino)benzenesulfonamide] the “PAR4-AP induced platelet aggregation (in words)” value (washed human platelets [2]) was “Comparable results”, the solubility ([3]; PBS buffer, pH 7.4, aqueous buffer) was over 60 µg/mL and the “improvement of solubility in buffer” value ([3]; relative to ML355) was over 10 fold. The “permeability (1 × 10^−6 cm/s)” value [4] was 168^c 1 × 10^−6 cm/s, the half-life ([5]; microsomes, rat, in the presence of NADPH, read-out: Microsomal stability T1/2) was over 30 min and the “microsomal degradation without NADPH” value ([5]; without NADPH present over a 1 h period) was “^bRepresents the stability in the presence of NADPH. 35 and 36 showed no degradation without NADPH present over a 1 h period”. The “inhibition of 12-HETE in mouse beta cells (in words)” value (Mouse beta cells (BTC3)) was “Comparable results”, the mode of inhibition (12-LOX) was “mixed inhibitors” and the “glucose-stimulated insulin secretion with cytokines” value [6] was “Uncoupling of glucose-stimulated insulin secretion by cytokines is inhibited”. For the same molecule, the “PAR4-AP-induced calcium mobilization (in words)” value (washed human platelets [7]) was “Calcium mobilization was decreased; also recorded: Comparable results”, the “mouse plasma stability remaining at 2 h (%)” value (mouse plasma stability) was 100% and the “PBS buffer (pH 7.4) stability at 48 h (%)” value [8] was 100%.
In the case of `O=S(=O)(Nc1nccs1)c1ccc(NCc2ccccc2O)cc1` [Compound 9, 4-(2-hydroxybenzylamino)-N-(thiazol-2-yl)benzene sulfonamide], the “12-LOX inhibitory activity (SAR, in words)” value (“12-LOX inhibitory activity” below) [9] is reported as “complete loss of activity” and the IC50 [9] is reported as over 40 µM.
In the case of `O=S(=O)(Nc1nccs1)c1ccc(NCc2cccc(O)c2)cc1` [Compound 14, 4-(3-hydroxybenzylamino)-N-(thiazol-2-yl)benzene sulfonamide], the IC50 [9] is reported as over 40 µM.
In the case of `O=S(=O)(Nc1nccs1)c1ccc(NCc2ccccc2)cc1` [Compound 8, 4-(benzylamino)-N-(thiazol-2-yl)benzene sulfonamide], the “12-LOX inhibitory activity” value [9] is reported as “complete loss of activity” and the IC50 [9] is reported as over 40 µM.
In the case of `Nc1ccccc1CNc1ccc(S(=O)(=O)Nc2nccs2)cc1` [Compound 13, 4-(2-aminobenzylamino)-N-(thiazol-2-yl)benzene sulfonamide], the “12-LOX inhibitory activity” value [9] is reported as “negated all 12-LOX inhibitory activity” and the IC50 [9] is reported as over 40 µM.
